{
  "source": "patent US7740906B2",
  "about": "“Wood preservatives” (Rohm and Haas Company, priority 2005, dated 2010)",
  "key": {"[1]": {"assay": "Leaching assay (modified AWPA E11-97)", "assay_type": "physicochemical", "conditions": "1000 ppm, 3* (30% DCOIT in xylene); no polymer, no added surfactant", "description": "In order to provide long term protection, the preservative needs to “fix” in the wood and not deplete too rapidly by volatilization or by leaching when the wood gets wet. It might be expected that enhanced penetration or enhanced movement of the preservative deep into the wood during treatment might also lead to reduced fixation of the organic wood preservative. However, it was discovered that the polymers used to provide enhanced penetration also effectively fix the organic biocide in the wood. Two different measures of fixation were used, a dislodgeable residue assay and a very aggressive leaching assay. The dislodgeable residue assay measures how much preservative can be removed or dislodged from the surface of the wood. This is a good assay to determine how much preservative is available or has migrated to the surface of the wood. […] All of the polymers provided exceptional control of dislodgeable residues except for one water soluble polymer that probably redissolves under the assay conditions. Another measure of fixation is resistance to leaching. A very aggressive leaching assay, the AWPA E11-97 assay was used. DCOIT is considered a low leaching organic biocide as is seen by the cumulative % of DCOIT leached in Table 6 with the xylene formulation which doesn't contain any added surfactant. Nonionic surfactants can facilitate the leaching of organic preservatives. […]"}, "[2]": {"assay": "Partitioning of DCOIT between polymer and supernatant of the treatment solution (centrifugation, HPLC)", "assay_type": "physicochemical", "conditions": "treatment solution (1500 ppm DCOIT) centrifuged at 100,000 RPM for 20 minutes", "method": "An aliquot of well-mixed sample was weighed into a one-ounce screw cap vial. Into the vial was pipetted 20 mL of methanol. The contents were sonicated for one hour in an ultrasonic bath. The sample was filtered through a 0.2 μm filter into an auto-sampler for analysis. The sample preparation was analyzed using a reverse phase HPLC procedure with UV detection according to the wood analysis method below.\nA 3 g sample of as is treatment solution was centrifuged at 10,000 RPM for 10 minutes to precipitate any gelled polymer or other particulates. No solid precipitated. The treatment solution sample was further centrifuged at 100,000 RPM for 20 minutes to precipitated the polymer. The precipitated polymer plug and the clear supernatant were analyzed for DCOIT by HPLC."}},
  "data": [
    {"molecule": "CCCCCCCCn1sc(Cl)c(Cl)c1=O", "note": "[DCOIT, 4,5-dichloro-2-n-octyl-4-isothiazolin-3-one]", "values": [
      {"measurement": "% Biocide Leached (cumulative)", "setting": "[1]", "value": 4.4, "unit": "%"},
      {"measurement": "DCOIT in polymer plug", "setting": "[2]", "value": "38,000 ppm"},
      {"measurement": "DCOIT in supernatant", "setting": "[2]", "value": 34, "unit": "ppm"}
    ]}
  ]
}
